According to ChEMBL document CHEMBL3526078, “Pharmacokinetics and hepatic uptake of eltrombopag, a novel platelet-increasing agent” (Drug Metab Dispos, 2011):
Converted amounts (≈) assume the structure as drawn.

Key:
[1] = Total clearance in bile-duct cannulated Sprague-Dawley rat at 1 mg/kg, iv in presence of 20 mg/kg rifampicin (reference value: 34.3 +/- 3.9 ml/h/kg); assay type: ADME, organism-based; settings: in vivo
[2] = Volume of distribution at steady state in Sprague-Dawley rat at 1 mg/kg, iv; assay type: ADME, organism-based; design: dose 1 mg/kg, route intravenous; settings: in vivo, read-out: Vdss
[3] = Clearance in Sprague-Dawley rat urine at 1 mg/kg, iv; assay type: ADME, organism-based; design: dose 1 mg/kg, route intravenous
[4] = Distribution volume to the central compartment in Sprague-Dawley rat urine at 1 mg/kg, iv; assay type: ADME, organism-based; design: dose 1 mg/kg, route intravenous; settings: read-out: Vc
[5] = Total clearance in Sprague-Dawley rat at 1 mg/kg, iv; assay type: ADME, organism-based; design: dose 1 mg/kg, route intravenous; settings: in vivo
Hepatocyte [6] = assay: Drug uptake in mouse hepatocytes at 37 degC up to 5 mins; assay type: ADME, cell-based
Hepatocyte [7] = assay: Drug uptake in mouse hepatocytes at 4 degC; assay type: ADME, cell-based
[8] = Solubility of the compound; assay type: physicochemical
Hepatocyte [9] = assay: Drug uptake in mouse hepatocytes at pH 7.4; assay type: ADME, cell-based
Hepatocyte [10] = assay: Drug uptake in mouse hepatocytes at pH 6.5; assay type: ADME, cell-based
Hepatocyte [11] = assay: Drug uptake in mouse hepatocytes at pH 5.5; assay type: ADME, cell-based
Hepatocyte [12] = assay: Drug uptake in mouse hepatocytes in absence of Na+; assay type: ADME, cell-based
Hepatocyte [13] = assay: Drug uptake in mouse hepatocytes in absence of Cl-; assay type: ADME, cell-based
Hepatocyte [14] = assay: Drug uptake in mouse hepatocytes in presence of rotenone ATP depletor; assay type: ADME, cell-based
Hepatocyte [15] = assay: Drug uptake in mouse hepatocytes in presence of carbonyl cyanide-para-trifluoromethoxyphenylhydrazone ATP depletor; assay type: ADME, cell-based
Hepatocyte [16] = assay: Drug uptake in mouse hepatocytes in presence of taurocholate OATP inhibitor; assay type: ADME, cell-based
Hepatocyte [17] = assay: Drug uptake in mouse hepatocytes in presence of rifampicin OATP inhibitor; assay type: ADME, cell-based
Hepatocyte [18] = assay: Drug uptake in mouse hepatocytes in presence of tetraethylammonium; assay type: ADME, cell-based
Hepatocyte [19] = assay: Drug uptake in mouse hepatocytes in presence of TPeA; assay type: ADME, cell-based
Hepatocyte [20] = assay: Drug uptake in mouse hepatocytes in presence of quinidine; assay type: ADME, cell-based
Hepatocyte [21] = assay: Drug uptake in mouse hepatocytes in presence of verapamil; assay type: ADME, cell-based
Hepatocyte [22] = assay: Drug uptake in mouse hepatocytes in presence of GABA; assay type: ADME, cell-based
Hepatocyte [23] = assay: Drug uptake in mouse hepatocytes in presence of phenylalanine; assay type: ADME, cell-based

clearance [1]: 0.335 mL/min/kg | Vd [2]: 0.287 L/kg | CL renal [3]: < 0.00117 mL/min/kg | Vd [4]: 0.0411 L/kg | clearance [5]: 0.55 mL/min/kg | Drug uptake (Hepatocyte [6]): Active | Drug uptake (Hepatocyte [7]): Not Active | solubility [8]: 200 µM (≈ 88.5 µg/mL) | Drug uptake (Hepatocyte [9]): Active | Drug uptake (Hepatocyte [10]): Active | Drug uptake (Hepatocyte [11]): Active | Drug uptake (Hepatocyte [12]): Active | Drug uptake (Hepatocyte [13]): Active | Drug uptake (Hepatocyte [14]): Not Active | Drug uptake (Hepatocyte [15]): Not Active | Drug uptake (Hepatocyte [16]): Not Active | Drug uptake (Hepatocyte [17]): Not Active | Drug uptake (Hepatocyte [18]): Not Active | Drug uptake (Hepatocyte [19]): Not Active | Drug uptake (Hepatocyte [20]): Not Active | Drug uptake (Hepatocyte [21]): Not Active | Drug uptake (Hepatocyte [22]): Not Active | Drug uptake (Hepatocyte [23]): Not Active
Compound: CC1=NN(c2ccc(C)c(C)c2)C(=O)/C1=N\Nc1cccc(-c2cccc(C(=O)O)c2)c1O [ELTROMBOPAG]
